From ChEMBL document CHEMBL4325876, “Novel 3-(2,6,9-trisubstituted-9H-purine)-8-chalcone derivatives as potent anti-gastric cancer agents: Design, synthesis and structural optimization” (Eur J Med Chem, 2019)
pIC50: −log10 of the molar value. Active and inactive are the calls of the source. The rule behind the calls is not given here.

Assays:
TE-1 = assay: Cytotoxicity against human TE1 cells assessed as inhibition of cell proliferation after 72 hrs by MTT assay; format: functional, cell-based; conditions: TE-1, 72 h
THP-1 = assay: Cytotoxicity against human THP1 cells assessed as inhibition of cell proliferation after 72 hrs by MTT assay; format: functional, cell-based; conditions: THP-1, 72 h
MGC-803 [1] = assay: Cytotoxicity against human MGC803 cells assessed as inhibition of cell proliferation after 72 hrs by MTT assay; format: functional, cell-based; conditions: MGC-803, 72 h
A549 = assay: Cytotoxicity against human A549 cells assessed as inhibition of cell proliferation after 72 hrs by MTT assay; format: functional, cell-based; conditions: A549, 72 h
GES1 = assay: Cytotoxicity against human GES-1 cells assessed as inhibition of cell proliferation after 72 hrs by MTT assay; format: cell-based; conditions: GES1, 72 h
[2] = Selectivity index, ratio of IC50 for human GES-1 cells to IC50 for human MGC803 cells; format: toxicity; conditions: GES-1 cells versus MGC803 cells, read-out: Ratio IC50
MGC-803 [3] = assay: Inhibition of colony formation in human MGC803 cells after 7 days by crystal violet staining based assay; format: functional, cell-based
MGC-803 [4] = assay: Antiinvasive activity in human MGC803 cells after 72 hrs by Hoechst 33258 staining based matrigel coated transwell assay; format: functional, cell-based
MGC-803 [5] = assay: Induction of apoptosis in human MGC803 cells assessed as increase in cleaved caspase-9 level after 72 hrs by Western blot analysis; format: functional, cell-based
MGC-803 [6] = assay: Induction of apoptosis in human MGC803 cells assessed as chromatin shrinkage at 0.25 to 1 uM after 72 hrs by Hoechst 33258 staining based fluorescence microscopic method; format: functional, cell-based
MGC-803 [7] = assay: Induction of apoptosis in human MGC803 cells assessed as apoptotic cells at 1 uM after 72 hrs by Annexin V-FITC/propidium iodide staining based flow cytometry (reference value: 0.6%); format: functional
MGC-803 [8] = assay: Induction of apoptosis in human MGC803 cells assessed as decrease in Bcl2 expression at 0.25 to 1 uM after 72 hrs by Western blot analysis; format: functional, cell-based
MGC-803 [9] = assay: Induction of apoptosis in human MGC803 cells assessed as increase in cleaved caspase-3 level after 72 hrs by Western blot analysis; format: functional, cell-based
MGC-803 [10] = assay: Induction of apoptosis in human MGC803 cells after 72 hrs by Annexin V-FITC/propidium iodide staining based flow cytometry; format: functional, cell-based
MGC-803 [11] = assay: Induction of apoptosis in human MGC803 cells assessed as increase in cleaved PARP level after 72 hrs by Western blot analysis; format: functional, cell-based
MGC-803 [12] = assay: Antimigratory activity in human MGC803 cells at 0.25 to 1 uM after 72 hrs by Hoechst 33258 staining based transwell assay; format: functional, cell-based
MGC-803 [13] = assay: Induction of apoptosis in human MGC803 cells assessed as increase in cleaved caspase-8 level after 72 hrs by Western blot analysis; format: functional, cell-based
MGC-803 [14] = assay: Antimigratory activity in human MGC803 cells at 0.25 to 1 uM after 72 hrs by wound healing assay; format: functional, cell-based
MGC-803 [15] = assay: Induction of apoptosis in human MGC803 cells assessed as formation of apoptotic bodies at 0.25 to 1 uM after 72 hrs by Hoechst 33258 staining based fluorescence microscopic method; format: functional, cell-based
MGC-803 [16] = assay: Induction of apoptosis in human MGC803 cells assessed as increase in Bax expression at 0.25 to 1 uM after 72 hrs by Western blot analysis; format: functional, cell-based
MGC-803 [17] = assay: Induction of apoptosis in human MGC803 cells assessed as cell rounding at 0.25 to 1 uM after 72 hrs by Hoechst 33258 staining based fluorescence microscopic method; format: functional

Structure (SMILES) | pIC50 (TE-1) | pIC50 (THP-1) | pIC50 (MGC-803 [1]) | pIC50 (A549) | other results
CCCSc1nc(N2CCOCC2)c2nc(/C=C/C(=O)c3ccc4ccccc4c3)n(Cc3ccccc3)c2n1 | 4.62 | < 4.49 | 5.11 | 4.55 | –
CCCSc1nc(N2CCOCC2)c2nc(CCc3ccccc3)n(Cc3ccccc3)c2n1 | – | – | < 4.49 | < 4.49 | –
CCCSc1nc(NCc2ccccc2)c2nc(/C=C/C(=O)c3ccc(C)cc3)n(Cc3ccccc3)c2n1 | < 4.49 | < 4.49 | 4.91 | 4.52 | –
CCCSc1nc(N2CCOCC2)c2nc(/C=C/C(=O)c3ccc(OC)cc3)n(Cc3ccccc3)c2n1 | 5.23 | 5.60 | 5.51 | 5.12 | –
CCCSc1nc(N2CCOCC2)c2nc(/C=C/C(=O)c3ccc(-c4ccccc4)cc3)n(Cc3ccccc3)c2n1 | < 4.49 | < 4.49 | < 4.49 | < 4.49 | –
CCCSc1nc(N2CCOCC2)c2nc(/C=C/C(=O)c3cccc(OC)n3)n(Cc3ccccc3)c2n1 | 4.97 | 5.01 | 5.06 | < 4.49 | –
CCCSc1nc(N2CCOCC2)c2nc(/C=C/C(=O)c3ccc(OC)c(OC)c3)n(Cc3ccccc3)c2n1 | 5.07 | < 4.49 | 5.31 | 5.01 | –
CCCSc1nc(N2CCOCC2)c2nc(/C=C/C(=O)c3ccc(Cl)cc3)n(Cc3ccccc3)c2n1 | 4.72 | 5.43 | 5.08 | 4.77 | –
CCCSc1nc(N2CCOCC2)c2nc(/C=C/C(=O)c3ccc(Br)cc3)n(Cc3ccccc3)c2n1 | 4.88 | 4.94 | 5.47 | 4.97 | –
CCCSc1nc(Cl)c2c(n1)N(Cc1ccccc1)C(C(=O)NCCCc1ccccc1)N2 (stereo not drawn) | – | – | – | – | pIC50 (GES1): 4.60; selectivity ratio [2]: 1.5; inhibition (MGC-803 [3]): Active
CCCSc1nc(N2CCOCC2)c2nc(-c3ccccc3)n(Cc3ccccc3)c2n1 | – | – | < 4.49 | < 4.49 | –
CCCSc1nc(N2CCOCC2)c2nc(/C=C/C(=O)c3ccc(C)cc3)n(Cc3ccccc3)c2n1 | 5.44 | 5.56 | 5.81 | 5.31 | –
CCCSc1nc(N2CCOCC2)c2nc(/C=C/C(=O)c3ccc(C)cc3)n(CCCc3ccccc3)c2n1 | 5.07 | 4.58 | 6.08 | 5.68 | pIC50 (GES1): 4.63; Activity (MGC-803 [4]): Dose-dependent effect; Activity (MGC-803 [5]): Dose-dependent effect; selectivity ratio [2]: 27.8; Activity (MGC-803 [6]): Active; Activity (MGC-803 [7]): 86.3%; Activity (MGC-803 [8]): Active; Activity (MGC-803 [9]): Dose-dependent effect; Activity (MGC-803 [10]): Dose-dependent effect; Activity (MGC-803 [11]): Dose-dependent effect; Activity (MGC-803 [12]): Active; Activity (MGC-803 [13]): Dose-dependent effect; Activity (MGC-803 [14]): Active; inhibition (MGC-803 [3]): Dose-dependent effect; Activity (MGC-803 [15]): Active; Activity (MGC-803 [16]): Active; Activity (MGC-803 [17]): Active
CCCSc1nc(N2CCOCC2)c2nc(/C=C/C(=O)c3ccccc3Cl)n(Cc3ccccc3)c2n1 | 5.31 | 5.01 | 5.62 | 5.04 | –
CCCSc1nc(N2CCOCC2)c2nc(/C=C/c3ccccc3)n(Cc3ccccc3)c2n1 | – | – | 4.52 | < 4.49 | –
CCCSc1nc(N2CCCCC2)c2nc(/C=C/C(=O)c3ccc(C)cc3)n(Cc3ccccc3)c2n1 | < 4.49 | < 4.49 | 4.80 | < 4.49 | –
CCCSc1nc(N2CCOCC2)c2nc(/C=C/C(=O)c3ccccc3)n(Cc3ccccc3)c2n1 | 5.13 | 5.85 | 5.32 | 4.83 | pIC50 (GES1): 4.45; selectivity ratio [2]: 7.5
CCCSc1nc(N2CCOCC2)c2nc(/C=C/C(=O)c3ccc(C)cc3)n(CC3CCCCC3)c2n1 | 5.07 | 5.42 | 5.40 | 4.98 | –
CCCSc1nc(N2CCOCC2)c2nc(/C=C/C(=O)c3cc(OC)c(OC)c(OC)c3)n(Cc3ccccc3)c2n1 | 5.00 | < 4.49 | 5.19 | < 4.49 | –
